Assay results from patent publication US20030045699A1, “Membrane receptors for steroids and sterols” (priority 2001, published 2003).

System: polypeptide according to the invention (membrane receptor for steroids and sterols)
Experiment: Receptor binding studies (binding assay) with radiolabeled steroids and sterols
Set-up: species or system human
Conditions: qualitative statement in the description; no value given
Experimental: In addition, the invention relates to a test system for identifying effectors of a polypeptide according to the invention, whereby a polypeptide according to the invention is incubated as a complete or partial sequence thereof with a steroid, a steroid analog or a sterol, and the amount of bound steroid, steroid analog or sterol is detected. As a partial sequence, e.g., the area that comprises the “leucine-rich repeats” and the island domain or shorter strands thereof can be used. The binding of the effectors can be measured, e.g., by labeled substances being used and the labeling (e.g., radioactivity or fluorescence) being measured. A displacement reaction can also be measured, however, by a binding labeled steroid being used and the displacement of the labeling by the receptor being measured after the addition of the substances to be tested. […]
Crude extracts and cytosol fractions (0.04 ml) were incubated at 4° C. for 2 hours with 10 μl of radioactive steroid or sterol (concentration in the batch 10 nmol/l) either in the absence or in the presence of a 100× excess of a non-radioactive substance (for determining the unspecific bond). […] After centrifuging (5 minutes, 15,000 g), an aliquot of the supernatant was removed, and the radioactivity was determined by means of a scintillation counter. […]

CC(C)=CCC[C@@H](C)[C@H]1CC=C2C3=C(CC[C@@]21C)[C@@]1(C)CC[C@H](O)C(C)(C)[C@@H]1CC3 [FF-MAS]
binding of the substance by the polypeptide according to the invention: binds
